The results in this text go back to ChEMBL document CHEMBL1201862, “PubChem BioAssay data set” (2004).

What all share (format): functional
Assay [1] concerns the target Inhibitor of nuclear factor kappa-B kinase subunit alpha (Homo sapiens, UniProt O15111).
The target of assay [2] is Inhibitor of nuclear factor kappa-B kinase subunit beta (Homo sapiens, UniProt O14920).
Assay [3] addresses Cyclin-dependent kinase 19 (Homo sapiens, UniProt Q9BWU1). Put plainly: Navigating the Kinome. Panel member name: CDC2L6.
In assay [4] the target is Insulin receptor (Homo sapiens, UniProt P06213).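 Further: insulin receptor kinase tested as one member of a kinome-wide kinase panel.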
Assay [5] concerns the target Tyrosine-protein kinase receptor UFO (Homo sapiens, UniProt P30530).
Assay [6] addresses LIM domain kinase 1 (Homo sapiens, UniProt P53667). Put plainly: Navigating the Kinome. Panel member name: LIMK1.
The target in assay [7] is Vascular endothelial growth factor receptor 3 (Homo sapiens, UniProt P35916).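 Further: value from a kinome-wide profiling panel, with FLT4 as the panel member.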
For assay [8], the target named is Rho-associated protein kinase 2 (Homo sapiens, UniProt O75116).
Assay [9] deals with Ribosomal protein S6 kinase alpha-5 (Homo sapiens, UniProt O75582).
Assay [10] addresses Focal adhesion kinase 1 (Homo sapiens, UniProt Q05397).
In assay [11] the target is Cyclin-dependent kinase 5 (Homo sapiens, UniProt Q00535).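 Further: CDK5 measured as one member of a kinase profiling panel.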
Cyclin-dependent kinase 5, sequence (Q00535 whole entry): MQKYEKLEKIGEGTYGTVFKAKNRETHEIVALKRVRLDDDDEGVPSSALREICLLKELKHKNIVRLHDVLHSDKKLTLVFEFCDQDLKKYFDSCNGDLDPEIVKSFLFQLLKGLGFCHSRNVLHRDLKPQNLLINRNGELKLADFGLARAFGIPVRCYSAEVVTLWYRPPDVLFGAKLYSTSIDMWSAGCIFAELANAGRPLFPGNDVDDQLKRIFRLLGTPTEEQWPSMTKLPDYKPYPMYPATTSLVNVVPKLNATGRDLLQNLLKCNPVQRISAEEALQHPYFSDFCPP
The target in assay [12] is RAC-alpha serine/threonine-protein kinase (Homo sapiens, UniProt P31749).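 Further: AKT1 affinity measured as one member of a kinome-wide kinase profiling panel.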
RAC-alpha serine/threonine-protein kinase, sequence (P31749 whole entry): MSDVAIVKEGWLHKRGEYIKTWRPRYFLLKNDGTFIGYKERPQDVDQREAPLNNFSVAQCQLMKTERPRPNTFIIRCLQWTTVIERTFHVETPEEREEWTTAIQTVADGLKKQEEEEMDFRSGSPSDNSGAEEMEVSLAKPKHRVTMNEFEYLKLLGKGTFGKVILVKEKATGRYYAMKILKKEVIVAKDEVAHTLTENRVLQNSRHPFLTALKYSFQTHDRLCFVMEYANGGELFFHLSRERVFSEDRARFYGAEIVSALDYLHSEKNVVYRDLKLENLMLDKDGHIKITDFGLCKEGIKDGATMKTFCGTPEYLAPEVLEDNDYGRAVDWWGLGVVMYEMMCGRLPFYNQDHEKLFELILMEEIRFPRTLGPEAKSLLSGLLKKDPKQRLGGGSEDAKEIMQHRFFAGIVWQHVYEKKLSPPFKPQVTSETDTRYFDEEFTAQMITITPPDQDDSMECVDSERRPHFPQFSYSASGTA
In assay [13] the target is Inhibitor of nuclear factor kappa-B kinase subunit epsilon (Homo sapiens, UniProt Q14164). The experiment in a line: Navigating the Kinome. Panel member name: IKBKE.
The target of assay [14] is Ribosomal protein S6 kinase beta-1 (Homo sapiens, UniProt P23443).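 Further: measured as one member of a kinome-wide profiling panel.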
The target in assay [15] is Macrophage-stimulating protein receptor (Homo sapiens, UniProt Q04912). Put plainly: Navigating the Kinome. Panel member name: MST1R.
Assay [16] has as its target Activated CDC42 kinase 1 (Homo sapiens, UniProt Q07912). Put plainly: Navigating the Kinome. Panel member name: ACK1.
The target in assay [17] is Cyclin-dependent kinase 8 (Homo sapiens, UniProt P49336). Put plainly: Navigating the Kinome. Panel member name: CDK8.
Cyclin-dependent kinase 8, sequence (P49336 whole entry): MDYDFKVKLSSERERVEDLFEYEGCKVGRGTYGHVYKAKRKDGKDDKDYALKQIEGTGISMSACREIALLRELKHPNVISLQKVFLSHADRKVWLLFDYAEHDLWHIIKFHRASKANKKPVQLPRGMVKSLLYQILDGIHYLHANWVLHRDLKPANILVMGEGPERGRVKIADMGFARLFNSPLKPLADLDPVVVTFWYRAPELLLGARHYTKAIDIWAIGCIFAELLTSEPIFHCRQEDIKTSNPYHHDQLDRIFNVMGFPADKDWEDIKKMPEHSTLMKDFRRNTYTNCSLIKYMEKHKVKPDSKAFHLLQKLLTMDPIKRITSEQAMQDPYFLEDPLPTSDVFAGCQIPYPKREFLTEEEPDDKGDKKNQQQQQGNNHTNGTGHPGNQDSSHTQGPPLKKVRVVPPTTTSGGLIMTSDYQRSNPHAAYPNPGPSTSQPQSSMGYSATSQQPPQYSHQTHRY
For assay [18], the target named is Mitogen-activated protein kinase kinase kinase kinase 4 (Homo sapiens, UniProt O95819).
Mitogen-activated protein kinase kinase kinase kinase 4, sequence (O95819 whole entry): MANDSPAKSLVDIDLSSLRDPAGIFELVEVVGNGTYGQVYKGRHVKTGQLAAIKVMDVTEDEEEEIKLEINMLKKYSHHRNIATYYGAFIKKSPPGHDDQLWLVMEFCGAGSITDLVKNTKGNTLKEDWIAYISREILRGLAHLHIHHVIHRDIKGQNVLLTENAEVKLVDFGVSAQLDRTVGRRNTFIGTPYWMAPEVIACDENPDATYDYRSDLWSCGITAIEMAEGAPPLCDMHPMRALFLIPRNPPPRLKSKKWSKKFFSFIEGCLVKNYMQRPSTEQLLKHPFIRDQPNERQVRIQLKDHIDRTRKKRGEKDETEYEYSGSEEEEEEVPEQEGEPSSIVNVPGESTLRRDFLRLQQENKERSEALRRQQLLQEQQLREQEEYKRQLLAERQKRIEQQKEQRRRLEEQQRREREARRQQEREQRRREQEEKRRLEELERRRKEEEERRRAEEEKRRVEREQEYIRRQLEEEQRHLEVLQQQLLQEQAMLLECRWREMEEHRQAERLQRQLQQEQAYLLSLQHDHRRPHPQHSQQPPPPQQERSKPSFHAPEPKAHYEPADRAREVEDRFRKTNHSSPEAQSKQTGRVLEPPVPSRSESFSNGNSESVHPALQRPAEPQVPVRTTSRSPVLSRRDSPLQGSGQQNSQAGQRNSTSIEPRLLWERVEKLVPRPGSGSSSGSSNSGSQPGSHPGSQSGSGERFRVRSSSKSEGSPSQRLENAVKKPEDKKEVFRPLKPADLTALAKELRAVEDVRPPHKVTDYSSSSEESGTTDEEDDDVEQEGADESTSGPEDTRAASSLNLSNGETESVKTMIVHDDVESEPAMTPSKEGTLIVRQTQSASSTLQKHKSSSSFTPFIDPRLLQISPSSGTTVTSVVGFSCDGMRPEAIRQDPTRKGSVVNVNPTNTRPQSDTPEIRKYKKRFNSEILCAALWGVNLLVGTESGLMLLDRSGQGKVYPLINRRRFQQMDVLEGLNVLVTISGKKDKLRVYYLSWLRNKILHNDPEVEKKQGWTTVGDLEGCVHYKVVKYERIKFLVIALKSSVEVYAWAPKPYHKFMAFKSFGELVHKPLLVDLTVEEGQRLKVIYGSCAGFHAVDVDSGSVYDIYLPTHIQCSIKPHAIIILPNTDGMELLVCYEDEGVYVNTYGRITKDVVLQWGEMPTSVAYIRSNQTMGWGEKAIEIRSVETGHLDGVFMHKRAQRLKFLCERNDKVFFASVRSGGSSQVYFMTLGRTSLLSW
For assay [19], the target named is Leucine-rich repeat serine/threonine-protein kinase 2 (Homo sapiens, UniProt Q5S007).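 Further: value from a broad kinome-wide panel profiling study in which LRRK2 was one of the kinases tested.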
Leucine-rich repeat serine/threonine-protein kinase 2, sequence (Q5S007 whole entry): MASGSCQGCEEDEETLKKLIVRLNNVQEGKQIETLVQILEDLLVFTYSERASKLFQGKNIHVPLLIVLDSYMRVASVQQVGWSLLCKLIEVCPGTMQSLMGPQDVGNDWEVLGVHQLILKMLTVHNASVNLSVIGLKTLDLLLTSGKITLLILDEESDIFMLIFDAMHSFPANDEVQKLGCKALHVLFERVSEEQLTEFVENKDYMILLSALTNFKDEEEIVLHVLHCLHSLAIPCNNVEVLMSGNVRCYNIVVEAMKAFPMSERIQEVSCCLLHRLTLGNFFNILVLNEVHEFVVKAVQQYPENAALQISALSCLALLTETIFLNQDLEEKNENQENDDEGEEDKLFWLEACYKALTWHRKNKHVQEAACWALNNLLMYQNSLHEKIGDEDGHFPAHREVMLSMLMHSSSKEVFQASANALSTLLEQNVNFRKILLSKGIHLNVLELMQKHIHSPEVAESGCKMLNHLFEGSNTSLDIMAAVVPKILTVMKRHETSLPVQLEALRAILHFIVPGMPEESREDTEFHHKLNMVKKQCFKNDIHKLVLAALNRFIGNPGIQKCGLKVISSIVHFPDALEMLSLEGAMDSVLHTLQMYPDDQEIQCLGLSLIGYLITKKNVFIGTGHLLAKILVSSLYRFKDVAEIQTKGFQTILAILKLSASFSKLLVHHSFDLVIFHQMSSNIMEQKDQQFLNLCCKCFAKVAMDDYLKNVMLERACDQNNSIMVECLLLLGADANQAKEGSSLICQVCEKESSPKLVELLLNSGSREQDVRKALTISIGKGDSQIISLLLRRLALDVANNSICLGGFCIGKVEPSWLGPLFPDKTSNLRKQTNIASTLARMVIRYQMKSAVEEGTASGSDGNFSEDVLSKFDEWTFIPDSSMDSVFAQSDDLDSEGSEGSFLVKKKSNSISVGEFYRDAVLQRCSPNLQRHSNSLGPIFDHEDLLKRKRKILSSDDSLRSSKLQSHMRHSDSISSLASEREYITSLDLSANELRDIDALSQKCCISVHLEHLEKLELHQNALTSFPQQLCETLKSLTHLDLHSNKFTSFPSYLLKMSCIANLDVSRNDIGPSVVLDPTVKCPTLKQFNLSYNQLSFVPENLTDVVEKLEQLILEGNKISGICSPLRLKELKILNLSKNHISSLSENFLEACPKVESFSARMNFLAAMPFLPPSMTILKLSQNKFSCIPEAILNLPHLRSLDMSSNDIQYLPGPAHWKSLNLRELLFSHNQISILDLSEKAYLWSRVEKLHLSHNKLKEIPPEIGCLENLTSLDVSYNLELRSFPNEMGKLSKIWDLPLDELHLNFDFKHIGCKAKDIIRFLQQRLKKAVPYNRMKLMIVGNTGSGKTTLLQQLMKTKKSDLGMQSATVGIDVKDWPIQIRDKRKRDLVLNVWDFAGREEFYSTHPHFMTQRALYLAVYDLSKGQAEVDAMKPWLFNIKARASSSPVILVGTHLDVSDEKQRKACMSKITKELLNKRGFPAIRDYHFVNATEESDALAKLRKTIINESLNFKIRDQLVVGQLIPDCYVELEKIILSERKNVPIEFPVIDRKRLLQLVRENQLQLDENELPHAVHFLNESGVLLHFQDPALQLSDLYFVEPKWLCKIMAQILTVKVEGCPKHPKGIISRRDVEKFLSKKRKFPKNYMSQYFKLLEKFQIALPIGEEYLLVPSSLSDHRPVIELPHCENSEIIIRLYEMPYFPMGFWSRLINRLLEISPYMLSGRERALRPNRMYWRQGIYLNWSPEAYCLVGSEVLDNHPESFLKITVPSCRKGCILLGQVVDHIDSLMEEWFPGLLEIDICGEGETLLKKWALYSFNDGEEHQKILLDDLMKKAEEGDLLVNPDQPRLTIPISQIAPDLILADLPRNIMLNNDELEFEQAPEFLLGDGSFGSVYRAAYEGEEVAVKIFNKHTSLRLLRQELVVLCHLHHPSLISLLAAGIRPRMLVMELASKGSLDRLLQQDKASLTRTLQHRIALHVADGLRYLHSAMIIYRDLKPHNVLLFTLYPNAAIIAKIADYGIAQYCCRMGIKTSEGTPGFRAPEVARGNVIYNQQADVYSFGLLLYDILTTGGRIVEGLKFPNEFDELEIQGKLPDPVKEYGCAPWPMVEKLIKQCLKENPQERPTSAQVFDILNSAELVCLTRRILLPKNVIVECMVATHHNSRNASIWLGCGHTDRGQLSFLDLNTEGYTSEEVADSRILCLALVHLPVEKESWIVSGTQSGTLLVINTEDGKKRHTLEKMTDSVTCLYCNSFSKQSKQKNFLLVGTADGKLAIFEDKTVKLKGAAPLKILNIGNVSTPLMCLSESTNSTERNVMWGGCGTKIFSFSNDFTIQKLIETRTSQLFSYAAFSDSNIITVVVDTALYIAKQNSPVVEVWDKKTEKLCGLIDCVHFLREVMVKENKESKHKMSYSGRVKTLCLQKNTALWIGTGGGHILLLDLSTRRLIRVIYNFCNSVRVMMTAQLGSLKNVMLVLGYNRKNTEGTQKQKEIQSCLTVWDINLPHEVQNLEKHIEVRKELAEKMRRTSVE
Assay [20] concerns the target Protein kinase C iota type (Homo sapiens, UniProt P41743).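 Further: measured within a kinome-wide kinase panel, PRKCI as panel member.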
The target of assay [21] is Activin receptor type-1 (Homo sapiens, UniProt Q04771). Put plainly: Navigating the Kinome. Panel member name: ACVR1.
The target in assay [22] is Protein kinase C zeta type (Homo sapiens, UniProt Q05513).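 Further: measured as one member of a broad kinase profiling panel.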
Assay [23] concerns the target Dual specificity protein kinase CLK2 (Homo sapiens, UniProt P49760).

The structures appear in SMILES notation. The source made the active and inactive calls.

In the case of `NC(COc1cncc(-c2ccc3c(c2)C(=Cc2ccco2)C(=O)N3)c1)Cc1c[nH]c2ccccc12` (configuration not stated), the Ki (usually the equilibrium dissociation constant of an inhibitor or competing ligand from its target) in [1] was 398 nM (active); in assay [2], 1260 nM (active); in [3] it was > 100000 nM (inactive); in [4], > 5010 nM (inactive); in assay [5], 10 nM (active); in [6], 794 nM (active). Further, the Ki in [7] is 25.1 nM (active); in [8], 12.6 nM (active); in assay [9], 25.1 nM (active); in [10] it was > 1580 nM (inactive).
As for `NC(=O)c1cc(-c2ccnc(N)n2)[nH]c1-c1ccc(Cl)cc1Cl`, the Ki in assay [11] is 316 nM (active); in assay [12], 7940 nM (active); in assay [13] it was > 3160 nM (inactive); in assay [14], > 6310 nM (inactive); in assay [15], > 3980 nM (inactive); in [16] it was 1260 nM (active). For the same compound, the Ki in [17] is 15.8 nM (active); in assay [18], 1580 nM (active); in assay [19], 316 nM (active); in assay [20], 794 nM (active); in [21] it was 2000 nM (active); in assay [22], 794 nM (active). For the same compound, in [23], the Ki was > 2.51 nM (inactive). Moreover, the pKi (commonly the negative decadic logarithm of the Ki, by convention in mol/L) in assay [11] worked out at 6.5; in assay [12] it was 5.1; in assay [16], 5.9; in assay [17], 7.8; in [18], 5.8; in [19], 6.5. Moreover, the pKi in assay [20] was 6.1; in assay [21] it was 5.7; in [22] it was 6.1.
